Tests used:
[1] = molecular target: T1, Serine/threonine-protein kinase N1 (Homo sapiens, UniProt Q16512); test: Inhibition of PKN1 (unknown origin) by TR-FRET-based tracer displacement assay
[2] = Toxicity in human HeLa cells assessed as cell viability at 50 uM incubated for 24 hrs by MTT assay; type: cell-based; details: read-out: Activity
[3] = molecular target: T1, Serine/threonine-protein kinase N1; test: Inhibition of PKN1 (unknown origin) by TR-FRET-based tracer displacement assay dependent Cheng-Prusoff equation analysis
[4] = molecular target: T2, Serine/threonine-protein kinase N2 (Homo sapiens, UniProt Q16513); test: Inhibition of PKN2 (unknown origin) by TR-FRET-based tracer displacement assay
T2 sequence (Q16513 whole entry): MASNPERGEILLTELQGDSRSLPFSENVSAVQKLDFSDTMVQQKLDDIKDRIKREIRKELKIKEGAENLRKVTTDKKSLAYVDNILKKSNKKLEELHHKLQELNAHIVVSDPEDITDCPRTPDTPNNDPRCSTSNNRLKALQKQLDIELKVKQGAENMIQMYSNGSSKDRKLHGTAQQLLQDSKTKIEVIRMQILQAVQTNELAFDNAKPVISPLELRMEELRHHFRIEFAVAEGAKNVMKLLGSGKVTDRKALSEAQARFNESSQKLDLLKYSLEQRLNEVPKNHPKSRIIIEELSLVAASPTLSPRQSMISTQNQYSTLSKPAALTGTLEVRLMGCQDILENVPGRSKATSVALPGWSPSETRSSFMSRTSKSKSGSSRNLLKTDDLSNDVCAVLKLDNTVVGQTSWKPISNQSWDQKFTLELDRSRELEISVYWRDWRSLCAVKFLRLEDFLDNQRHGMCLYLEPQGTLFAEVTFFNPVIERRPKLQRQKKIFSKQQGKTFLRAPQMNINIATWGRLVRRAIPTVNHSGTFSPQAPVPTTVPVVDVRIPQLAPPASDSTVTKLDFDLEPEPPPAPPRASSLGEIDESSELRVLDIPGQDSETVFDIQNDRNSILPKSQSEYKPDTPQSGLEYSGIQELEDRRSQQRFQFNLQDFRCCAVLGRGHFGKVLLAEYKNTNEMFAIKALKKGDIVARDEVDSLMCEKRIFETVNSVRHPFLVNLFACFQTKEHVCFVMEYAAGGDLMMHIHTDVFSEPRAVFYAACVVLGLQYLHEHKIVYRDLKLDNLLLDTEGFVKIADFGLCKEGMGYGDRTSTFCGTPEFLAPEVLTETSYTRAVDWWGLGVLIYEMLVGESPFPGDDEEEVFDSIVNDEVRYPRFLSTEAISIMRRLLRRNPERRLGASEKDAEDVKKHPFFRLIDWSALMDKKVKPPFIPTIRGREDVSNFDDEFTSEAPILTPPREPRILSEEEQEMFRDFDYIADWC

[5] = molecular target: T2, Serine/threonine-protein kinase N2; test: Inhibition of PKN2 (unknown origin) by TR-FRET-based tracer displacement assay dependent Cheng-Prusoff equation analysis
[6] = molecular target: T2, Serine/threonine-protein kinase N2; test: Inhibition of NanoLuc-PKN2 (ser646-cys984)(unknown origin) expressed in HEK293 cells by cell-based NanoBRET target engagement assay
[7] = molecular target: T2, Serine/threonine-protein kinase N2; test: Inhibition of NanoLuc-PKN2 (ser646-cys984)(unknown origin) expressed in HEK293 cells in […] by cell-based NanoBRET target engagement assay

T1 sequence (Q16512 whole entry): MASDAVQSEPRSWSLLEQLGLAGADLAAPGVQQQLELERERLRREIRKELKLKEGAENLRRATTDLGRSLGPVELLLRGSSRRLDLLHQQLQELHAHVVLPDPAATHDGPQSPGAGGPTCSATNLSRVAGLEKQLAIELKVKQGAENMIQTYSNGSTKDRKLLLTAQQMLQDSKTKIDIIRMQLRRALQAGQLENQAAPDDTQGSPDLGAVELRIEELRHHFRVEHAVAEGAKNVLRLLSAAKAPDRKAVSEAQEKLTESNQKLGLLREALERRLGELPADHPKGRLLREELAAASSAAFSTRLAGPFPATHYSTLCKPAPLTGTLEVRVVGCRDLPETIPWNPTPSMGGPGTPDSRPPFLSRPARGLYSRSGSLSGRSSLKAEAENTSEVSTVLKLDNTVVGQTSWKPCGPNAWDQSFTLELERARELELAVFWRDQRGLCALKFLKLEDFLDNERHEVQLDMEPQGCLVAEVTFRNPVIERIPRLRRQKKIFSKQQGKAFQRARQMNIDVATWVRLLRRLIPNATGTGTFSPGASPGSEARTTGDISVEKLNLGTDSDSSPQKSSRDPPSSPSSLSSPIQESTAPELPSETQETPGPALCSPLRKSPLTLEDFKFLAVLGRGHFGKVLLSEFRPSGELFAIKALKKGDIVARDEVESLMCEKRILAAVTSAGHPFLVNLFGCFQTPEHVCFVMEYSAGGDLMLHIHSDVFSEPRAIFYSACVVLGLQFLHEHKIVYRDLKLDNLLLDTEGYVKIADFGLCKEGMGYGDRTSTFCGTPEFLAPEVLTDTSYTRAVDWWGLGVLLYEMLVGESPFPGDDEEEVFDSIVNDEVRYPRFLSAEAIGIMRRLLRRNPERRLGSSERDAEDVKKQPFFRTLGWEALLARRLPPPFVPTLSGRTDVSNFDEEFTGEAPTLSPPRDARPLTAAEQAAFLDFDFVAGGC

IC50 [1] [nM] | Ki [3] [nM] | IC50 [4] [nM] | Ki [5] [nM] | IC50 [6] [nM] | IC50 [7] [nM] | Compound | viability at 24 h, 50 µM [2] [%]
300 | 150 |  |  |  |  | O=C1NCCc2[nH]c(-c3ccncc3)cc21 | ≥ 70
520 | 260 | 50 | 25 |  |  | O=C1NC(c2ccccc2)Cc2[nH]c(-c3ccncc3)cc21 (stereo not drawn) | 
> 5000 |  | 2600 | 1300 |  |  | CCCN1CCc2c(cc(-c3ccncc3)n2CC)C1=O | 
440 | 220 | 30 | 15 | 11000 |  | O=C1NCCc2c1cc(-c1ccncc1)n2CCO | 
3000 | 1500 | 640 | 320 |  |  | O=C1NCCc2c1cc(-c1ccncc1)n2Cc1ccccc1 | 
> 5000 |  | 350 | 170 |  |  | CCn1c(-c2ccncc2)cc2c1CCN(C)C2=O | 
> 5000 |  | 3200 | 1600 |  |  | O=C1NCCc2[nH]c(-c3cccnc3)cc21 | 
4500 | 2200 | 260 | 130 |  |  | Cn1c(-c2ccncc2)cc2c1CCNC2=O | 
1840 | 920 | 140 | 70 |  |  | CC(C)n1c(-c2ccncc2)cc2c1CCNC2=O | 
210 | 108 | 16 | 8 | 2100 | 1100 | CCn1c(-c2ccncc2)cc2c1CCNC2=O | ≥ 70
> 5000 |  | 2200 | 1100 |  |  | c1cc(-c2cc3c([nH]2)CCNC3)ccn1 | 
1300 | 650 | 60 | 30 |  |  | O=C1CCCc2[nH]c(-c3ccncc3)cc21 | 
120 | 60 | 15 | 7 | 2800 |  | CCCn1c(-c2ccncc2)cc2c1CCNC2=O | ≥ 70

Reference: ChEMBL document CHEMBL5131476, “Development of dihydropyrrolopyridinone-based PKN2/PRK2 chemical tools to enable drug discovery” (Bioorg Med Chem Lett, 2022)
